In the supplement of paper PMC10307832:

compound: CC1=CC(=C(N1C2=CC=C(C=C2)Cl)C)C(=O)CN3CCCCC3 [IU1-47] + Cc1nc(NC(=O)N2CCC[C@H]2C(N)=O)sc1-c1ccnc(C(C)(C)C(F)(F)F)c1 [Alpelisib] (partner 2 µM); assay: relative viability (nuclei count vs DMSO), 5 days (fraction); higher = more cells survive; conditions: first compound 0.08 µM
Procedure, shortened: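 Relative viability equals treated-well nuclei counts divided by vehicle-well nuclei counts. Counts came from 4× images of lung cancer cell lines grown in 1536-well plates for 5 days after pin-tool dosing on the day after seeding. Dosing used one drug alone or a fixed anchor-drug dose plus five library-drug doses (not always all listed) in √10 steps, and values are medians of duplicate plates.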

Cell Line | relative viability
NCI-H727 | 0.712
EBC-1 | 0.863
NCI-H1703 | 0.264
NCI-H1993 | 0.753
SW 1573 | 0.905
NCI-H838 | 1.04
LCLC-103H | 0.854
NCI-H520 | 0.947
NCI-H2126 | 0.759
EMC-BAC-2 | 0.768
NCI-H2085 | 1.04
Calu-6 | 0.907
HCC-366 | 0.479
NCI-H1666 | 0.882
NCI-H596 | 0.638
LK-2 | 1.13
NCI-H2087 | 1.23

Cell Line | relative viability
SK-MES-1 | 0.885
H3255 | 0.696
COR-L23 | 0.686
COR-L 105 | 1.29
IA-LM | 0.738
LOU-NH91 | 0.761
NCI-H2170 | 0.905
NCI-H2405 | 0.795
HOP-62 | 1.16
HCC-44 | 0.942
A549 | 0.795
LU99A | 0.498
BEN | 1.06
HCC-78 | 0.387
NCI-H1299 | 1.05
NCI-H1563 | 0.909
ABC-1 | 1.12

same assay, conditions: first compound 0.253 µM

Cell Line | relative viability
EBC-1 | 0.742
NCI-H1703 | 0.273
NCI-H1993 | 0.728
SW 1573 | 0.758
NCI-H838 | 1.03
LCLC-103H | 0.989
NCI-H520 | 0.948
NCI-H2126 | 0.814
EMC-BAC-2 | 0.824
NCI-H2085 | 0.973
Calu-6 | 1.01
HCC-366 | 0.424
NCI-H1666 | 0.903
NCI-H596 | 0.44
LK-2 | 1.23
NCI-H2087 | 1.01
SK-MES-1 | 0.998

Cell Line | relative viability
H3255 | 0.708
COR-L23 | 0.947
COR-L 105 | 1.06
IA-LM | 0.595
LOU-NH91 | 0.75
NCI-H2170 | 0.799
NCI-H2405 | 0.761
HOP-62 | 1.21
HCC-44 | 0.822
A549 | 0.767
LU99A | 0.59
BEN | 1.13
HCC-78 | 0.319
NCI-H1299 | 1.11
NCI-H1563 | 0.87
ABC-1 | 1.3

same assay, conditions: first compound 0.8 µM

Cell Line | relative viability
NCI-H727 | 0.647
EBC-1 | 0.805
NCI-H1703 | 0.286
NCI-H1993 | 0.657
SW 1573 | 0.664
NCI-H838 | 1.05
LCLC-103H | 0.983
NCI-H520 | 1.03
NCI-H2126 | 0.78
EMC-BAC-2 | 0.793
NCI-H2085 | 1.02
Calu-6 | 0.989
HCC-366 | 0.524
NCI-H1666 | 0.812
NCI-H596 | 0.0053
LK-2 | 1.63
NCI-H2087 | 1.15

Cell Line | relative viability
SK-MES-1 | 1.03
H3255 | 0.754
COR-L23 | 0.869
COR-L 105 | 1.11
IA-LM | 0.854
LOU-NH91 | 0.71
NCI-H2170 | 0.84
NCI-H2405 | 0.749
HOP-62 | 1.05
HCC-44 | 0.783
A549 | 0.751
LU99A | 0.488
BEN | 1.24
HCC-78 | 0.391
NCI-H1299 | 1.13
NCI-H1563 | 0.871
ABC-1 | 0.977

same assay, conditions: first compound 2.53 µM

Cell Line | relative viability
NCI-H727 | 0.626
EBC-1 | 0.722
NCI-H1703 | 0.355
NCI-H1993 | 0.725
SW 1573 | 0.756
NCI-H838 | 1.08
LCLC-103H | 0.914
NCI-H520 | 0.907
NCI-H2126 | 0.55
EMC-BAC-2 | 0.749
NCI-H2085 | 0.975
Calu-6 | 0.985
NCI-H1666 | 1.03
NCI-H596 | 0.429
LK-2 | 0.997
NCI-H2087 | 1.21

Cell Line | relative viability
SK-MES-1 | 0.859
H3255 | 0.818
COR-L23 | 0.951
COR-L 105 | 1.16
IA-LM | 0.679
LOU-NH91 | 0.692
NCI-H2170 | 0.777
HOP-62 | 1.11
HCC-44 | 0.825
A549 | 0.936
LU99A | 0.627
BEN | 0.973
HCC-78 | 0.327
NCI-H1299 | 1.13
NCI-H1563 | 0.942

same assay, conditions: first compound 8 µM

Cell Line | relative viability
NCI-H727 | 0.377
EBC-1 | 0.676
NCI-H1703 | 0.301
NCI-H1993 | 0.594
SW 1573 | 0.839
NCI-H838 | 0.859
LCLC-103H | 1.05
NCI-H520 | 0.726
NCI-H2126 | 0.707
EMC-BAC-2 | 0.711
NCI-H2085 | 0.856
Calu-6 | 1.25
HCC-366 | 0.231
NCI-H1666 | 0.836
NCI-H596 | 0.49
LK-2 | 0.628
NCI-H2087 | 0.909
SK-MES-1 | 0.922
H3255 | 0.671
COR-L23 | 0.975
COR-L 105 | 0.783
IA-LM | 0.526
LOU-NH91 | 0.668
NCI-H2170 | 0.772
NCI-H2405 | 0.768
HOP-62 | 1.01
